Drawing on patent US20110065632A1, “PHARMACEUTICAL COMPOSITIONS OF SOMATOSTATIN-DOPAMINE CONJUGATES” (priority 2008, published 2011), this text covers Ki for nine compounds.

One experiment deals with T1, hsst5 (Homo sapiens, UniProt P35346).
T1 construct: expressed in transfected cells
Description: Somatostatin receptor radioligand binding assay, hsst5. The settings on record: CHO-K1 membranes, [125I-Tyr11]SS-14. Summed up:
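Membranes from CHO-K1 cells stably expressing hsst5, incubated 90 min at 25 °C with 0.05 nM [125I-Tyr11]SS-14 in 50 mM HEPES pH 7.4 with BSA, MgCl2 and protease inhibitors. Bound ligand collected by filtration. Non-specific binding defined with 1000 nM SS-14.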

A further experiment has as its target T2, hsst1 (Homo sapiens, UniProt P30872).
T2 construct: expressed in transfected cells
Description: Somatostatin receptor radioligand binding assay, hsst1. On the procedure: Specificity and selectivity of the somatostatin analogues used to synthesize the somatostatin-dopamine chimers were determined by a radioligand binding assay on CHO-K1 cells stably transfected with each of the SSTR subtypes, as follows. Somatostatin analogs are also described in U.S. Patent Application Publication No. 02210006790. The complete coding sequences of genomic fragments of the SSTR 1 (e.g., Genbank accession No. M81829), SSTR 2 (e.g., Genbank accession No. M81830), SSTR 3 (e.g., Genbank accession No. L07062), and SSTR 4 (e.g., Genbank accession No. AL049651) genes and a cDNA clone for SSTR 5 (e.g., Genbank accession No. D16827) was subcloned into the mammalian expression vector pCMV (Life Technologies, Milano, Italy). Other SSTR sequences are known to the skilled artisan. Clonal cell lines stably expressing SSTR's 1-5 were obtained by transfection into CHO-K1 cells (ATCC, Manassas, Va., USA) using the calcium phosphate co-precipitation method (Davis L, et al., 1994 In: Basic methods in Molecular Biology, 2nd edition, Appleton & Lange, Norwalk, Conn., USA: 611-646). The plasmid pRSV-neo (ATCC) was included as a selectable marker. Clonal cell lines were selected in RPMI 1640 media containing 0.5 mg/mL of G418 (Life Technologies, Milano, Italy), ring cloned, and expanded into culture.
Membranes for in vitro receptor binding assays were obtained by homogenizing the CHO-K1 cells expressing the SSTR's subtypes in ice-cold 50 mM Tris-HCl and centrifuging twice at 39,000 g (10 min), with an intermediate resuspension in fresh buffer. The final pellets were resuspended in 10 mM Tris-HCl for assay.
For the SSTR 1, 3, 4, and 5 assays, aliquots of the membrane preparations were incubated 90 minutes at 25° C. with 0.05 nM [^125I-Tyr11]SS-14 in 50 mM HEPES (pH 7.4) containing 10 mg/mL BSA, 5 mM MgCl2, 200 KIU/mL Trasylol, 0.02 mg/mL bacitracin, and 0.02 mg/mL phenylmethylsuphonyl fluoride. The final assay volume was 0.3 mL.
For the SSTR 2 assay, 0.05 nM [^125I]MK-678 was employed as the radioligand and the incubation time was 90 minutes at 25° C. The incubations were terminated by rapid filtration through GF/C glass microfiber filters (Whatman Co.) (pre-soaked in 0.3% polyethylenimine) using a BRANDEL filtration manifold. Each tube and filter was washed three times with 5 mL aliquots of ice-cold buffer. Specific binding was defined as the total radioligand bound minus that bound in the presence of 1000 nM SS-14 for SSTR 1, 3, 4, and 5, or 1000 nM MK-678 for SSTR2.
(§1) Using the discussed assays, the inhibition constants (Ki) for the five human somatostatin receptors (hSSTR1-hSSTR5) and the dopamine-2 receptor (hUTII and hDA2) were measured for the exemplified somatostatin-dopamine conjugates, as follows: […]

A further experiment has as its target hDA2. Put plainly: Dopamine-2 receptor radioligand binding assay. The settings on record: [3H]spiperone. The arrangement: species or system human.
The next experiment deals with T3, hsst2 (Homo sapiens, UniProt P30874).
T3 construct: expressed in transfected cells
Put plainly: Somatostatin receptor radioligand binding assay, hsst2. The conditions noted are these: CHO-K1 membranes, [125I]MK-678; read-out: hsst2 Ki. The method, boiled down:
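Membranes from CHO-K1 cells stably expressing human SSTR2, in 10 mM Tris-HCl, incubated 90 min at 25 °C with 0.05 nM [125I]MK-678. Bound ligand collected by filtration on PEI-soaked GF/C filters; nonspecific binding defined with 1000 nM MK-678.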

For a further experiment, the target named is T4, hUTII (Homo sapiens, UniProt Q9UKP6).
T4 sequence (Q9UKP6 1-389): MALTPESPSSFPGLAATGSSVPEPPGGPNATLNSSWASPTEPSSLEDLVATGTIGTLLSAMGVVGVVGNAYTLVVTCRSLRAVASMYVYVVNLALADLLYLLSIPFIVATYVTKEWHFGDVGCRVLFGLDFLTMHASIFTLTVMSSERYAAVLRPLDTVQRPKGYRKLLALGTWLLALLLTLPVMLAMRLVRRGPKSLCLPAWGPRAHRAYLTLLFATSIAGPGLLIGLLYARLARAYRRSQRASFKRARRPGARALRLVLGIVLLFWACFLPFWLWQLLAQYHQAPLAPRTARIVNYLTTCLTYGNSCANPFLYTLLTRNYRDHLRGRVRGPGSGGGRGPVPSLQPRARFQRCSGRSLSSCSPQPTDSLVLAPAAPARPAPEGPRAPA
Put plainly: hUTII inhibition constant. The format is binding. The conditions noted are these: read-out: hUTII Ki. On the procedure:
as §1

Another experiment addresses T5, hsst3 (Homo sapiens, UniProt P32745).
T5 construct: expressed in transfected cells
Description: Somatostatin receptor radioligand binding assay, hsst3. Summed up:
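Membranes from CHO-K1 cells stably transfected with each human SSTR subtype, incubated 90 min at 25 °C with 0.05 nM [125I-Tyr11]SS-14 in 50 mM HEPES pH 7.4 with BSA, MgCl2 and protease inhibitors; filtration read-out. Nonspecific binding with 1000 nM SS-14; Ki values reported.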

Setting [1] is: CHO-K1 membranes, [125I-Tyr11]SS-14, read-out: hsst1 Ki.
[2] abbreviates: CHO-K1 membranes, [125I-Tyr11]SS-14, read-out: hsst3 Ki.

Like-named read-outs stand apart in the source and are kept apart here. Numbered stars: 1 amine (or outer) side, 2 acyl side, 3 side chain; on linkers, the order of the positions; unused ones are H or OH. Bridge positions count the residues as written; N and C are the ends. Square brackets hold non-standard residues; d marks the D form. Peptide text beside a SMILES is read from it. * marks the point of attachment. X1 = CCCN1C[C@H](CSCC(=O)*)C[C@@H]2c3cccc4[nH]cc(c34)C[C@H]21; X2 = CN1C[C@H](CSCC(=O)*)C[C@@H]2c3cccc4[nH]cc(c34)C[C@H]21; Pipz(1-CH2CO,4-CH2CH2NH) = O=C(CN1CCN(CCN[*:1])CC1)[*:2]; Abu = CC[C@H](N)C(=O)O

T5 sequence (P32745 whole entry): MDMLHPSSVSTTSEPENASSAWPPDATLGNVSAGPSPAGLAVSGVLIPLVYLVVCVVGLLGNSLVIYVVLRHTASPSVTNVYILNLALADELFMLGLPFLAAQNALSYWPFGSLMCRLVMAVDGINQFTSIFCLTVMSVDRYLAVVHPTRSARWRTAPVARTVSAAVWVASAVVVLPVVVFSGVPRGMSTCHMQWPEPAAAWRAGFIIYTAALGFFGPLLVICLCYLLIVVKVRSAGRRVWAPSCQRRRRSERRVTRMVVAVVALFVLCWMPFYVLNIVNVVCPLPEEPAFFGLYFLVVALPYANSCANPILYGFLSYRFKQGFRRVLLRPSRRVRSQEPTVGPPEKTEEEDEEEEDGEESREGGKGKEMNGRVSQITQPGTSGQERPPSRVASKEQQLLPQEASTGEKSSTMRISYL
T3 sequence (P30874 whole entry): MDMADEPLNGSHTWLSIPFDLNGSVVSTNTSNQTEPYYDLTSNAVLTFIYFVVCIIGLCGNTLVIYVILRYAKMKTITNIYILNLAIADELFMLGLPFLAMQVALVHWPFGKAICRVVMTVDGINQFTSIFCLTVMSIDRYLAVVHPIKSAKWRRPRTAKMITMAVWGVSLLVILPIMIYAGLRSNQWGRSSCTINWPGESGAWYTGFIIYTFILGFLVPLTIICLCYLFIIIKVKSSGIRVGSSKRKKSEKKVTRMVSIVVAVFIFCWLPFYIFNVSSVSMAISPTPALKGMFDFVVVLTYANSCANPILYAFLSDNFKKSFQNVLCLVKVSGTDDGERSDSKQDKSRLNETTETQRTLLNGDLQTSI
T1 sequence (P35346 whole entry): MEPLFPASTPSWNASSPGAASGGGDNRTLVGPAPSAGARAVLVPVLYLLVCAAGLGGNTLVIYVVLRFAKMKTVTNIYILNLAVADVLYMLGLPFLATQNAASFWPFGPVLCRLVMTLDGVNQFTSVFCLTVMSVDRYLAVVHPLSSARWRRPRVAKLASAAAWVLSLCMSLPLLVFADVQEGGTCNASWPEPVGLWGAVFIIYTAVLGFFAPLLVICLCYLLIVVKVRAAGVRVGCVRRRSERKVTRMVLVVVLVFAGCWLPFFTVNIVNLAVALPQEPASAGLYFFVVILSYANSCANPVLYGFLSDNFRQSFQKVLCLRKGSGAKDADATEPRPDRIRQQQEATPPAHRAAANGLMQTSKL
T2 sequence (P30872 whole entry): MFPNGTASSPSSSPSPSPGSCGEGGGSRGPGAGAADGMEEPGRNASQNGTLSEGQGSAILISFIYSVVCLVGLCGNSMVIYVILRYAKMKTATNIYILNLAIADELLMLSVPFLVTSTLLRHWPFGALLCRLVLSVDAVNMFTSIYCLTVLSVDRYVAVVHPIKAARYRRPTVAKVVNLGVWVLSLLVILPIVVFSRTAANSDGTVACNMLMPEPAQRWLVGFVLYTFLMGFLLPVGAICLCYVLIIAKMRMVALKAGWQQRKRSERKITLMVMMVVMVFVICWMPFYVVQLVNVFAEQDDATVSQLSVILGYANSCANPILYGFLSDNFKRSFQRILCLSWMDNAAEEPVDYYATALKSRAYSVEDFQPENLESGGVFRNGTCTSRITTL

What is called Ki is a measure of affinity in units of concentration, obtained from inhibition or displacement. As for `CCCN1C[C@H](CSCC(=O)NCCCC[C@H](NC(C)=O)C(=O)N[C@H](Cc2ccc(O)cc2)C(=O)N[C@H](Cc2ccc(O)cc2)C(=O)N[C@H]2CSSC[C@@H](C(=O)N[C@H](C(N)=O)[C@@H](C)O)NC(=O)[C@H](CC)NC(=O)[C@H](CCCCN)NC(=O)[C@@H](Cc3c[nH]c4ccccc34)NC(=O)[C@H](Cc3ccc(O)cc3)NC2=O)C[C@@H]2c3cccc4[nH]cc(c34)C[C@H]21` [Example 11] (Ac-K(X1)[dY][dY]CY[dW]K[Abu]CT-NH2; disulfide 4-9), the Ki at hsst5 (read-out: hsst5 Ki) was found to be 8.91 nM; at hsst1 (setting [1]), 437 nM; at hDA2, 119 nM; on hsst2, 0.04 nM; on hUTII it was 64.4 nM; at hsst3 (setting [2]), 162 nM.
With `CC[C@@H]1NC(=O)[C@H](CCCCN)NC(=O)[C@@H](Cc2c[nH]c3ccccc23)NC(=O)[C@H](Cc2ccc(O)cc2)NC(=O)[C@@H](NC(=O)[C@@H](Cc2ccccc2)NC(=O)COCCOCCNC(=O)CSC[C@@H]2C[C@@H]3c4cccc5[nH]cc(c45)C[C@H]3N(C)C2)CSSC[C@@H](C(=O)N[C@H](C(N)=O)[C@@H](C)O)NC1=O` [Example 40], the inhibition constant Ki at hsst5 (read-out: hsst5 Ki) stood at 17 nM; on hsst1 (setting [1]) it was 1000 nM; at hDA2, 255 nM; on hsst2, 0.32 nM; on hUTII, 223 nM; on hsst3 (setting [2]), 70.3 nM.
Turning to `CC[C@@H]1NC(=O)[C@H](CCCCN)NC(=O)[C@@H](Cc2c[nH]c3ccccc23)NC(=O)[C@H](Cc2ccc(O)cc2)NC(=O)[C@@H](NC(=O)[C@@H](Cc2ccccc2)NC(=O)COCCOCCNC(=O)COCCOCCNC(=O)CSC[C@@H]2C[C@@H]3c4cccc5[nH]cc(c45)C[C@H]3N(C)C2)CSSC[C@@H](C(=O)N[C@H](C(N)=O)[C@@H](C)O)NC1=O` [Example 42], the Ki at hsst5 (read-out: hsst5 Ki) stood at 20.6 nM; on hsst1 (setting [1]) it was 1000 nM; on hDA2, 278 nM; on hsst2, 0.34 nM; at hUTII, 510 nM; at hsst3 (setting [2]) it was 120 nM.
Turning to `CCNC(=O)N(CCCN(C)CC(=O)N[C@H](Cc1ccccc1)C(=O)N[C@H]1CSSC[C@@H](C(=O)N[C@H](C(N)=O)[C@@H](C)O)NC(=O)[C@H](CC)NC(=O)[C@H](CCCCN)NC(=O)[C@@H](Cc2c[nH]c3ccccc23)NC(=O)[C@H](Cc2ccc(O)cc2)NC1=O)C(=O)[C@H]1CN[C@@H]2Cc3c[nH]c4cccc(c34)[C@H]2C1` [Example 7], the inhibition constant Ki at hsst5 (read-out: hsst5 Ki) was 28.6 nM; at hsst1 (setting [1]), 345 nM; on hDA2 it was 193 nM; on hsst2 it was 0.19 nM; on hUTII it was 695 nM; on hsst3 (setting [2]), 267 nM.
`CCCN1C[C@H](CSCC(=O)NCCCC[C@H](NC(=O)CSC[C@@H]2C[C@@H]3c4cccc5[nH]cc(c45)C[C@H]3N(CCC)C2)C(=O)N[C@H]2CSSC[C@@H](C(=O)N[C@H](C(N)=O)[C@@H](C)O)NC(=O)[C@H](CC)NC(=O)[C@H](CCCCN)NC(=O)[C@@H](Cc3c[nH]c4ccccc34)NC(=O)[C@H](Cc3ccc(O)cc3)NC2=O)C[C@@H]2c3cccc4[nH]cc(c34)C[C@H]21` [Example 9]: the Ki on hsst5 (hsst5 Ki) amounted to 99.5 nM; at hsst1, 273 nM; at hDA2, 8.3 nM; at hsst2 it was 0.54 nM; at hUTII, 635 nM; on hsst3, 536 nM.
As for `CCCN1C[C@H](CSCC(=O)NCCN2CCN(CC(=O)N[C@H](Cc3ccccc3)C(=O)N[C@H]3CSSC[C@@H](C(=O)N[C@H](C(N)=O)[C@@H](C)O)NC(=O)[C@H](CC)NC(=O)[C@H](CCCCN)NC(=O)[C@@H](Cc4c[nH]c5ccccc45)NC(=O)[C@H](Cc4ccc(O)cc4)NC3=O)CC2)C[C@@H]2c3cccc4[nH]cc(c34)C[C@H]21` [Example 24], the inhibition constant (Ki) at hsst5 (read-out: hsst5 Ki) was determined as 24.2 nM; on hsst1 (setting [1]), 1000 nM; at hDA2 it was 143 nM; at hsst2, 0.37 nM; on hUTII, 1510 nM; at hsst3 (setting [2]), 154 nM.
With `CCCN1C[C@H](CSCC(=O)NCCCC[C@H](NC(=O)CSC[C@@H]2C[C@@H]3c4cccc5[nH]cc(c45)C[C@H]3N(CCC)C2)C(=O)N[C@H](Cc2ccc(O)cc2)C(=O)N[C@H](Cc2ccc(O)cc2)C(=O)N[C@H]2CSSC[C@@H](C(=O)N[C@H](C(N)=O)[C@@H](C)O)NC(=O)[C@H](CC)NC(=O)[C@H](CCCCN)NC(=O)[C@@H](Cc3c[nH]c4ccccc34)NC(=O)[C@H](Cc3ccc(O)cc3)NC2=O)C[C@@H]2c3cccc4[nH]cc(c34)C[C@H]21` [Example 10] (X1-K(X1)[dY][dY]CY[dW]K[Abu]CT-NH2; disulfide 4-9), the inhibition constant Ki on hsst5 (read-out: hsst5 Ki) was 26.5 nM; on hsst1 (setting [1]) it was 549 nM; on hDA2 it was 8.22 nM; at hsst2, 0.15 nM; on hUTII, 177 nM; on hsst3 (setting [2]), 324 nM.
Take `CC[C@@H]1NC(=O)[C@H](CCCCN)NC(=O)[C@@H](Cc2c[nH]c3ccccc23)NC(=O)[C@H](Cc2ccc(O)cc2)NC(=O)[C@@H](NC(=O)[C@@H](Cc2ccc(O)cc2)NC(=O)[C@@H](Cc2ccc(O)cc2)NC(=O)[C@H](CCCCN)NC(=O)CN2CCN(CCNC(=O)CN3CCN(CCNC(=O)CSC[C@@H]4C[C@@H]5c6cccc7[nH]cc(c67)C[C@H]5N(C)C4)CC3)CC2)CSSC[C@@H](C(=O)N[C@H](C(N)=O)[C@@H](C)O)NC1=O` [Example 28] (X2-[Pipz(1-CH2CO,4-CH2CH2NH)][Pipz(1-CH2CO,4-CH2CH2NH)]K[dY][dY]CY[dW]K[Abu]CT-NH2; disulfide 6-11): the Ki on hsst5 (hsst5 Ki) stood at 5.13 nM; on hsst1 it was 661 nM; at hDA2 it was 506 nM; at hsst2, 0.11 nM; on hUTII, 564 nM; on hsst3, 156 nM.
Regarding `CCCN1C[C@H](CSCC(=O)NCCOCCOCC(=O)N[C@H](Cc2ccccc2)C(=O)N[C@H]2CSSC[C@@H](C(=O)N[C@H](C(N)=O)[C@@H](C)O)NC(=O)[C@H](CC)NC(=O)[C@H](CCCCN)NC(=O)[C@@H](Cc3c[nH]c4ccccc34)NC(=O)[C@H](Cc3ccc(O)cc3)NC2=O)C[C@@H]2c3cccc4[nH]cc(c34)C[C@H]21` [Example 8], the Ki on hsst5 (read-out: hsst5 Ki) came out at 24.5 nM; at hsst1 (setting [1]), 1550 nM; at hDA2, 86 nM; at hsst2, 0.11 nM; on hUTII it was 167 nM; at hsst3 (setting [2]) it was 126 nM.
